Laboratory results as given in patent publication US9296698B2, “Amino heteroaryl compounds as beta-secretase modulators and methods of use” (Amgen Inc., priority 2009, dated 2016).
pIC50: −log10 of the molar value. Where two headings read alike, the source gives them in different places.

Tests used:
[1] = tested on: Aβ40 in conditioned medium of cells stably expressing Amyloid Precursor Protein (APP); test: In vitro BACE cell-based assay (HEK cell assay), Aβ40 sandwich ELISA
Method in brief: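 Cells stably expressing APP received 10-point compound dilutions (top 100 μM or 10 μM; 0.1% DMSO) for 24 h. Secreted Aβ40 was quantified by sandwich ELISA (pAb40 capture, biotinylated 6E10 detection, europium time-resolved fluorescence). IC50 was derived from percent inhibition versus concentration.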

[2] = molecular target: BACE 1 (Beta Secretase enzyme) (Homo sapiens, UniProt P56817); test: In vitro enzymatic BACE FRET assay; assay type: biochemical
Sequence of BACE 1 (Beta Secretase enzyme) (P56817 46-501, species assumed): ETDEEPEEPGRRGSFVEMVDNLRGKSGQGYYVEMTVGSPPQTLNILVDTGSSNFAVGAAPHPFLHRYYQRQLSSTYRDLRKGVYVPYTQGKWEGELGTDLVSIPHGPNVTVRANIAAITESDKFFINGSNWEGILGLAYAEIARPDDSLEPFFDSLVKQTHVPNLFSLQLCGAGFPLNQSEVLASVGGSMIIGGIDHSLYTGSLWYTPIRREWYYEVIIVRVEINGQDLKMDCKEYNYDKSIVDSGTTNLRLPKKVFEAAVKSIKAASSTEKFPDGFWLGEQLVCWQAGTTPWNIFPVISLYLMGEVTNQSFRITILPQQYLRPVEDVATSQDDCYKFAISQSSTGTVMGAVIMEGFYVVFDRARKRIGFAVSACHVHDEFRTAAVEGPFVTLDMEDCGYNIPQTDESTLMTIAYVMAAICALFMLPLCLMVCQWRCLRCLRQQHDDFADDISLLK
Method in brief: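 BACE activity read by FRET: peptide substrate (50 nM) carrying fluorophore and quencher across the cleavage site, incubated one hour in 0.05 M acetate pH 4.2, 10% DMSO final, 100 uM genapol. Tris addition raises pH to neutrality to stop the reaction before fluorescence is read.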

[3] = Homo sapiens, HEK293, 24 h, IC50 range symbols, Table 1, Aβ40, 24 h incubation, read-out: HEK cell assay
[4] = IC50 range symbols, Table 1, read-out: BACE 1 FRET assay
[5] = IC50 range symbols, Table 1, Aβ40, 24 h incubation, read-out: HEK cell assay
[6] = bound stated, read-out: IC50 value in the FRET BACE enzyme assay

Compound	pIC50 [1, 3]	pIC50 [2, 4]	pIC50 [1, 5]	pIC50 [2, 6]	pIC50 ([1]; Homo sapiens, HEK293, bound stated in text, read-out: IC50 value in the BACE cell-based in-vitro assay)
CCn1ccc(CNC(=O)CCc2cc3cc(-c4ccccc4C)ccc3nc2N)n1 [Example 59, 3-(2-amino-6-o-tolylquinolin-3-yl)-N-((1-ethyl-1H-pyrazol-3-yl)methyl)propanamide]	5.30 to 6.00	> 6.30			
N-(2-methoxybenzyl)-3-(3-amino-7-o-tolylnaphthalen-2-yl)propanamide [Example 61]		5.30 to 6.00	< 5.30		
CC(=O)c1ccccc1-c1ccc2nc(N)c(CC(C)C(=O)NC3CCOC(C)(C)C3)cc2c1 (stereo not shown) [Example 143, 3-(6-(2-acetylphenyl)-2-amino-3-quinolinyl)-N-(2,2-dimethyltetrahydro-2H-pyran-4-yl)-2-methylpropanamide]	> 6.30	> 6.30			
Cc1ccc(-c2ccc3nc(N)c(CC(C)C(=O)NCC4CCCCC4)cc3c2)c(F)n1 (stereo not shown) [Example 107, 3-(2-amino-6-(2-fluoro-6-methylpyridin-3-yl)quinolin-3-yl)-N-(cyclohexylmethyl)-2-methylpropanamide]	5.30 to 6.00	5.30 to 6.00			
Cc1ccccc1-c1ccc2nc(N)c(CCC(=O)NCCC3CCCCC3)cc2c1 [Example 24, 3-(2-amino-6-o-tolylquinolin-3-yl)-N-(2-cyclohexylethyl)propanamide]	> 6.30	> 6.30			
Cc1ccccc1-c1ccc2nc(N)c(CC(C)C(=O)N[C@H](C)C3CCCCC3)cc2c1 (stereo partly drawn) [Example 47, 3-(2-amino-6-o-tolylquinolin-3-yl)-N-((R)-1-cyclohexylethyl)-2-methylpropanamide]	5.30 to 6.00	> 6.30			
Cc1ccccc1-c1cc2cc(CC(C)C(=O)NCCC(C)(C)C)c(N)nc2cn1 (stereo not shown) [Example 138, 3-(2-amino-6-o-tolyl-1,7-naphthyridin-3-yl)-N-(3,3-dimethylbutyl)-2-methylpropanamide]	> 6.30	> 6.30		> 7.30	
Cc1ccccc1-c1ccc2nc(N)c(CC(C)C(=O)NCC3CCOC3)cc2c1 (stereo not shown) [Example 91, 3-(2-amino-6-o-tolylquinolin-3-yl)-2-methyl-N-((tetrahydrofuran-3-yl)methyl)propanamide]	5.30 to 6.00	> 6.30			
Cc1cccnc1-c1cc2cc(CC(C)C(=O)NCC3CCOCC3)c(N)nc2cc1F (stereo not shown) [Example 97, 3-(2-amino-7-fluoro-6-(3-methyl-2-pyridinyl)-3-quinolinyl)-2-methyl-N-(tetrahydro-2H-pyran-4-ylmethyl)propanamide]	5.30 to 6.00	> 6.30			
CC(Cc1cc2cc(-c3ncccc3CCN3CCN(C)CC3)ccc2nc1N)C(=O)NCCC(C)(C)C (stereo not shown) [Example 124, 3-(2-amino-6-(3-(2-(4-methylpiperazin-1-yl)ethyl)pyridin-2-yl)quinolin-3-yl)-N-(3,3-dimethylbutyl)-2-methylpropanamide]	> 6.30	6.00 to 6.30			
CC(Cc1cc2cc([C@H]3C[C@H]3C)ccc2nc1N)C(=O)NCCC(C)(C)C (stereo partly drawn) [Example 121, 3-(2-amino-6-((1S,2R)-2-methylcyclopropyl)quinolin-3-yl)-N-(3,3-dimethylbutyl)-2-methylpropanamide]	< 5.30	6.00 to 6.30			
Cc1ccccc1-c1cc2cc(CCC(=O)NCCC(C)(C)C)c(N)nc2cn1 [Example 135, 3-(2-amino-6-o-tolyl-1,7-naphthyridin-3-yl)-N-(3,3-dimethylbutyl)propanamide]	< 5.30	> 6.30		> 7.30	
Cc1cccnc1-c1ccc2nc(N)c(CC(C)C(=O)NCCC3(C)CC3)cc2c1 (stereo not shown) [Example 102, 3-(2-amino-6-(3-methylpyridin-2-yl)quinolin-3-yl)-2-methyl-N-(2-(1-methylcyclopropyl)ethyl)propanamide]	> 6.30	> 6.30			
Cc1ccccc1-c1ccc2nc(N)c(CCC(=O)NCc3nccs3)cc2c1 [Example 63, 3-(2-amino-6-o-tolylquinolin-3-yl)-N-(thiazol-2-ylmethyl)propanamide]	5.30 to 6.00	> 6.30			
N-(4-fluoro-4-methylpentan-2-yl)-2-methyl-3-(6-(3-methylpyridin-2-yl)quinolin-3-yl)propanamide [Example 100]		6.00 to 6.30	5.30 to 6.00		
Cc1cccnc1-c1ccc2nc(N)c(CC(C)C(=O)NCCC(F)(F)F)cc2c1 (stereo not shown) [Example 112, 3-(2-amino-6-(3-methylpyridin-2-yl)quinolin-3-yl)-2-methyl-N-(3,3,3-trifluoropropyl)propanamide]	6.00 to 6.30	> 6.30			
CC(Cc1cc2cc(-c3ncccc3CCN(C)C)ccc2nc1N)C(=O)NCCC(C)(C)C (stereo not shown) [Example 127, 3-(2-amino-6-(3-(2-(dimethylamino)ethyl)pyridin-2-yl)quinolin-3-yl)-N-(3,3-dimethylbutyl)-2-methylpropanamide]	> 6.30	> 6.30			

Compound	pIC50 [1, 3]	pIC50 [2, 4]	pIC50 [1, 5]	pIC50 [2, 6]	pIC50 ([1]; Homo sapiens, HEK293, bound stated in text, read-out: IC50 value in the BACE cell-based in-vitro assay)
COc1ccccc1C(C)NC(=O)C(C)Cc1cc2cc(-c3ccccc3C)ccc2nc1N (stereo not shown) [Example 104, 3-(2-amino-6-o-tolylquinolin-3-yl)-N-(1-(2-methoxyphenyl)ethyl)-2-methylpropanamide]	5.30 to 6.00	> 6.30			
Nc1nc2ccc(-c3cccc(F)c3)cc2cc1CCC(=O)NCC1CCCCC1 [Example 43, 3-(2-amino-6-(3-fluorophenyl)quinolin-3-yl)-N-(cyclohexylmethyl)propanamide]	5.30 to 6.00	6.00 to 6.30			
3-(3-amino-7-o-tolylnaphthalen-2-yl)-N-(pyridin-3-ylmethyl)propanamide [Example 37]		> 6.30	5.30 to 6.00		
Cc1cccnc1-c1ccc2nc(N)c(CC(C)C(=O)NCC3CCOCC3)cc2c1 (stereo not shown) [Example 88, 3-(2-amino-6-(3-methylpyridin-2-yl)quinolin-3-yl)-2-methyl-N-((tetrahydro-2H-pyran-4-yl)methyl)propanamide]	6.00 to 6.30	> 6.30			
CC(Cc1cc2cc(-c3ccccc3C(=O)C3CCCCC3)ccc2nc1N)C(=O)NC1CCOC(C)(C)C1 (stereo not shown) [Example 147, 3-(2-amino-6-(2-(cyclohexylcarbonyl)phenyl)-3-quinolinyl)-N-(2,2-dimethyltetrahydro-2H-pyran-4-yl)-2-methylpropanamide]	> 6.30	> 6.30			
Cc1ccccc1-c1cc2cc(CCC(=O)NCC3CCCCC3)c(N)nc2cc1C [Example 95, 3-(2-amino-7-methyl-6-(2-methylphenyl)-3-quinolinyl)-N-(cyclohexylmethyl)propanamide]	< 5.30	> 6.30			
Cc1ccncc1-c1ccc2nc(N)c(CCC(=O)NCC3CCCCC3)cc2c1 [Example 46, 3-(2-amino-6-(4-methylpyridin-3-yl)quinolin-3-yl)-N-(cyclohexylmethyl)propanamide]	< 5.30	5.30 to 6.00			
Cc1cccc(C(=O)N2CCCC2)c1-c1ccc2nc(N)c(CC(C)C(=O)NCc3ccccc3)cc2c1 (stereo not shown) [Example 151, 3-(2-amino-6-(2-methyl-6-(pyrrolidine-1-carbonyl)phenyl)quinolin-3-yl)-N-benzyl-2-methylpropanamide]	> 6.30	> 6.30			
COc1ccccc1C(C)NC(=O)CCc1cc2cc(-c3ccccc3C)ccc2nc1N (stereo not shown) [Example 105, 3-(2-amino-6-o-tolylquinolin-3-yl)-N-(1-(2-methoxyphenyl)ethyl)propanamide]	5.30 to 6.00	> 6.30			
CC(C)(C)CCNC(=O)CCc1cc2cc(-c3ccccc3C(=O)N3CCCC3)ccc2nc1N [Example 165, 3-(2-amino-6-(2-(1-pyrrolidinylcarbonyl)phenyl)-3-quinolinyl)-N-(3,3-dimethylbutyl)propanamide]	5.30 to 6.00	> 6.30			
Cc1ccccc1-c1ccc2nc(N)c(C[C@@H](C)C(=O)NC3C[C@@H](C)O[C@@H](C)C3)cc2c1 (stereo partly drawn) [Example 12, (2R)-3-(2-amino-6-o-tolylquinolin-3-yl)-N-(cis-2,6-dimethyltetrahydro-2H-pyran-4-yl)-2-methylpropanamide]	> 6.30	> 6.30		> 7.30	> 7.00
Cc1ccccc1-c1ccc2nc(N)c(CC(C)C(=O)N[C@H](C)c3ccccc3OC(F)F)cc2c1 (stereo partly drawn) [Example 77, 3-(2-amino-6-o-tolylquinolin-3-yl)-N-((R)-1-(2-(difluoromethoxy)phenyl)ethyl)-2-methylpropanamide]	5.30 to 6.00	> 6.30			
Cc1ccccc1-c1ccc2nc(N)c(CCC(=O)N3CCC(F)(F)C3)cc2c1 [Example 134, 3-(2-amino-6-o-tolylquinolin-3-yl)-1-(3,3-difluoropyrrolidin-1-yl)propan-1-one]	< 5.30	5.30 to 6.00			
Cc1ccccc1-c1cc2cc(CC(C)C(=O)NCCC(F)(F)F)c(N)nc2cn1 (stereo not shown) [Example 137, 3-(2-amino-6-o-tolyl-1,7-naphthyridin-3-yl)-2-methyl-N-(3,3,3-trifluoropropyl)propanamide]	< 5.30	> 6.30			
Cc1ccccc1-c1ccc2nc(N)c(CC(C)C(=O)N[C@H](C)c3ccccc3OC(F)F)cc2c1 (stereo partly drawn) [Example 130, 3-(2-amino-6-o-tolylquinolin-3-yl)-N-((R)-1-(2-(difluoromethoxy)phenyl)ethyl)-2-methylpropanamide]		> 6.30	5.30 to 6.00		
Cc1ccccc1-c1ccc2nc(N)c(C(C)CC(=O)NCC3CCCCC3)cc2c1 (stereo not shown) [Example 6, 3-(2-amino-6-o-tolylquinolin-3-yl)-N-(cyclohexylmethyl)butanamide]	< 5.30	> 6.30			
